Two compounds from ChEMBL document CHEMBL1201862, “PubChem BioAssay data set” (2004) can be followed below.

Activity calls are given as the source filed them.

The target in assay [1] is T1, Endoribonuclease toxin MazF (Escherichia coli K-12, UniProt P0AE70).
T1 sequence (P0AE70 whole entry): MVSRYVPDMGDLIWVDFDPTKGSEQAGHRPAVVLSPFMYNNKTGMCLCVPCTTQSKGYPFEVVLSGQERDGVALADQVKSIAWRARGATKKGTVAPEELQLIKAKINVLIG
Put plainly: SAR analysis of small molecule activators of the MazEF TA System via a fluorescence-based single-stranded RNase assay counterscreen. [Related pubchem assays (depositor defined):AID504720, AID504743]. Type of assay: functional. On the technique in general: A counterscreen serves to expose hits that act by an unwanted route or on another target.

Assay [2] concerns the target T1, Endoribonuclease toxin MazF. Nature of the assay: MazF endoribonuclease activators, SAR follow-up, biochemical, fluorescence, single-stranded RNA substrate (AID 588603). Type of assay: functional.
Assay [3] has the same target. Nature of the assay: MazF toxin RNase activators, dose response, biochemical, fluorescence, single-stranded RNA substrate, uHTS hits (AID 588481). Type of assay: functional.
Assay [4] has the same target. Nature of the assay: fluorescent RNA oligo signal without MazF, dose response, counter-screen for MazEF activator project, biochemical, fluorescence, single-stranded RNase substrate (AID 588502). The class given is functional.
Assay [5] deals with MEF. Nature of the assay: SAR analysis of small molecule cytotoxicity of MazEF TA System activators in embryonic fibroblast (MEF) cells. [Related pubchem assays (depositor defined):AID504720, AID504743]. Type of assay: functional. The conditions noted are these: Mus musculus.
The target in assay [6] is T2, Replicative DNA helicase DnaB (Mycobacterium tuberculosis, UniProt P9WMR3).
T2 sequence (P9WMR3 whole entry): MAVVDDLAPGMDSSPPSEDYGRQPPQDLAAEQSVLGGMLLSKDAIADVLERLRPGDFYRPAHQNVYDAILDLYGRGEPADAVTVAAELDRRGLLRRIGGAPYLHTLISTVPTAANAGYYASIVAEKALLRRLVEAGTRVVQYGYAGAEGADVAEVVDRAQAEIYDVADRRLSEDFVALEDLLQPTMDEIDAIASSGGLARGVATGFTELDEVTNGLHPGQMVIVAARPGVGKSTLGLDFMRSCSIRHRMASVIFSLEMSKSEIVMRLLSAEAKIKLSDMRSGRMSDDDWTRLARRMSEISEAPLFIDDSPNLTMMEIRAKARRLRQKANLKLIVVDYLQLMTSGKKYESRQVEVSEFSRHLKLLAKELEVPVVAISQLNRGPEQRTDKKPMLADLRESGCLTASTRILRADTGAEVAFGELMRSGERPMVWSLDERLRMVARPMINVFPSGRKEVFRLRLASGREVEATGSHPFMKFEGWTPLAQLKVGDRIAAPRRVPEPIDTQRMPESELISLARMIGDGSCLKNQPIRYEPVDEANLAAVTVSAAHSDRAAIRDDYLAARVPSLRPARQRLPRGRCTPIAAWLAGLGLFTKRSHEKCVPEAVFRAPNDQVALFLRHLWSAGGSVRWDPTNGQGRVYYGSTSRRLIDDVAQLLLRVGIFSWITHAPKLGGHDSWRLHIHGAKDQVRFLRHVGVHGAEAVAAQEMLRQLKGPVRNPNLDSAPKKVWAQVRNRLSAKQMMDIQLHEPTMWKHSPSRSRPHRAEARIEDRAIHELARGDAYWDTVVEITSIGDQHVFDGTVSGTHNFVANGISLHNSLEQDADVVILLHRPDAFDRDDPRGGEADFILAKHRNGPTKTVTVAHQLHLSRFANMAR
Put plainly: DnaB intein splicing inhibitors, dose response, biochemical, cell-free fluorescence (AID 449749). Type of assay: functional.

The target in assay [7] is T3, Heat shock factor protein 1 (Mus musculus, UniProt P38532).
T3 sequence (P38532 whole entry): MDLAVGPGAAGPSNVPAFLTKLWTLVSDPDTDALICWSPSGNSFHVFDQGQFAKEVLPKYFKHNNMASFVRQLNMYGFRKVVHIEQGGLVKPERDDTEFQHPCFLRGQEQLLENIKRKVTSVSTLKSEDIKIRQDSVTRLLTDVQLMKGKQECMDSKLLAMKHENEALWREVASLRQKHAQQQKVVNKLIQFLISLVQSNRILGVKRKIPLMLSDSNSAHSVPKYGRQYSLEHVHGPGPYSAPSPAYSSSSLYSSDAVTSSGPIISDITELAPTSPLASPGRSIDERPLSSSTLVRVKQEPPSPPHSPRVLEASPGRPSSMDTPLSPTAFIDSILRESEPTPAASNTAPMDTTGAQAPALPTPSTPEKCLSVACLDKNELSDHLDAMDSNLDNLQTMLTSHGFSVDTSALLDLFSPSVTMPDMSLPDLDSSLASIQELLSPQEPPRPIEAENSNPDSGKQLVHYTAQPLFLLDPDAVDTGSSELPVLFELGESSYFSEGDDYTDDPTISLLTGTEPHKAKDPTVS
Nature of the assay: inhibition of MG132-induced HSE-luciferase signal, confirmation, cell-based, NIH3T3, luminescence, dose retest (AID 2382).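 Also: NIH3T3 fibroblasts with HSF1-driven luciferase reporter stressed by proteasome inhibitor MG132; luminescence from HSF1-driven luciferase expression after 8 hours of MG132 stress.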 The class given is functional.

In assay [8] the target is Protein S100-A4 (Homo sapiens, UniProt P26447). Nature of the assay: S100A4-myosin IIA binding inhibitor potency, dose response, biochemical, fluorescence polarization, cherry-picked hits (AID 687001). The class given is functional. (In fluorescence polarisation assays a small probe gives low polarisation when free and higher when bound to something large.)
Assay [9] concerns the target T4, Caspase-6 (Homo sapiens, UniProt P55212).
T4 sequence (P55212 whole entry): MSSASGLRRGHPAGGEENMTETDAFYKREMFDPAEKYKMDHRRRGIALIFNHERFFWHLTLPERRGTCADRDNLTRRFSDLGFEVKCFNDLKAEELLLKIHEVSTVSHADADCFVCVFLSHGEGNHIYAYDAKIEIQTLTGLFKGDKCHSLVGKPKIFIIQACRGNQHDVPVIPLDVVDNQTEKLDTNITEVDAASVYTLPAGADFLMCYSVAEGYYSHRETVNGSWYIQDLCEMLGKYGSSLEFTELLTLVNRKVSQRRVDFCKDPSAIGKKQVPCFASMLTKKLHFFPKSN
Nature of the assay: human caspase-6 inhibitors, dose response, biochemical, VEID-R110 fluorescence, cherry-pick (AID 720632).

In assay [10] the target is Genome polyprotein (dengue virus type 2, UniProt P29990). Put plainly: Dengue-2 NS5 methyltransferase inhibitors, primary screen, biochemical, confirmation dose response (AID 588689). Type of assay: functional.
The test system of assay [11] is Vero. Nature of the assay: Vero cell cytotoxicity, cytotoxicity control for flavivirus capping enzyme inhibitors (AID 588742). Type of assay: functional. Particulars: Chlorocebus sabaeus.
Assay [12] has as its target T5, Tyrosyl-DNA phosphodiesterase 2 (Homo sapiens, UniProt O95551).
T5 sequence (O95551 whole entry): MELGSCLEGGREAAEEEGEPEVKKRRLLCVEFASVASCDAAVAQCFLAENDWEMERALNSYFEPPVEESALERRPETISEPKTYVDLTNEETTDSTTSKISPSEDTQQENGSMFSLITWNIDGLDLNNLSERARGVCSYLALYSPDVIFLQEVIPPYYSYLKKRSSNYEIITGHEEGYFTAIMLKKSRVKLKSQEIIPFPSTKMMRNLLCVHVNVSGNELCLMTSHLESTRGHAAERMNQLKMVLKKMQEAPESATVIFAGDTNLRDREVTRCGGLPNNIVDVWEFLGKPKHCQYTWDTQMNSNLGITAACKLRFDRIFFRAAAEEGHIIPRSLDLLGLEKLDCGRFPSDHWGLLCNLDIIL
Put plainly: human TDP2 enzyme inhibitors, dose response, biochemical, epi absorbance, IC50 (AID 743297).

Assay [13] has as its system INS1. Nature of the assay: beta cell apoptosis inhibitors, cytokine rescue, dose response, luminescence, retest (AID 449756).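 Also: cell death triggered by IL-1 beta plus TNF-alpha plus IFN-gamma mixture; protective hits raise ATP signal compared with cytokine alone wells.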 The class given is functional, cell-based. Particulars: Rattus norvegicus.
Assay [14] deals with T6, Protein RecA (Mycobacterium tuberculosis, UniProt P9WHJ3).
T6 sequence (P9WHJ3 whole entry): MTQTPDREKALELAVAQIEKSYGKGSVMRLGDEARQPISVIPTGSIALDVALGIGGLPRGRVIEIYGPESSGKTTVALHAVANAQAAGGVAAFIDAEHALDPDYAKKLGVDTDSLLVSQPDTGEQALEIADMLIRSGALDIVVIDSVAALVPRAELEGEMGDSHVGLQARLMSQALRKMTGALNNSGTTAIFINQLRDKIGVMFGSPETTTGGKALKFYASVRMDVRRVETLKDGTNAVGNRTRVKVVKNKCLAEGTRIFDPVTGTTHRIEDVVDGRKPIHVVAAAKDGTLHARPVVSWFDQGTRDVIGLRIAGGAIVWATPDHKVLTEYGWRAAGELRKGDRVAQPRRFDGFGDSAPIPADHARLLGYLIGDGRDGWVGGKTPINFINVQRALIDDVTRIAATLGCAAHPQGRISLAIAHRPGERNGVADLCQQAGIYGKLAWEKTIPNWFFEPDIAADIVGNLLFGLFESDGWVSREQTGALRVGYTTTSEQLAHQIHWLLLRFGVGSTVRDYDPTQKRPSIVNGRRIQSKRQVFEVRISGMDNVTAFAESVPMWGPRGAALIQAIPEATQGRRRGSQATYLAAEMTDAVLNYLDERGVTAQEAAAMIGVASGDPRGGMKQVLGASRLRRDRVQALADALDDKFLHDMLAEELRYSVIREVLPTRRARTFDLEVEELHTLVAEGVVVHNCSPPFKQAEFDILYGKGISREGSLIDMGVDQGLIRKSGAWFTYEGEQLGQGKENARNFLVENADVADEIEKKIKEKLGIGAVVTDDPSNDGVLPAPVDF
Put plainly: Fluorescence Cell-Free Homogeneous Dose Retest to Identify Inhibitors of RecA-Intein Splicing Activity. [Related pubchem assays (depositor defined):AID2097, AID2223, AID489010, AID492950]. Type of assay: functional.

Genome polyprotein, sequence (P29990 2492-3391 limits assumed): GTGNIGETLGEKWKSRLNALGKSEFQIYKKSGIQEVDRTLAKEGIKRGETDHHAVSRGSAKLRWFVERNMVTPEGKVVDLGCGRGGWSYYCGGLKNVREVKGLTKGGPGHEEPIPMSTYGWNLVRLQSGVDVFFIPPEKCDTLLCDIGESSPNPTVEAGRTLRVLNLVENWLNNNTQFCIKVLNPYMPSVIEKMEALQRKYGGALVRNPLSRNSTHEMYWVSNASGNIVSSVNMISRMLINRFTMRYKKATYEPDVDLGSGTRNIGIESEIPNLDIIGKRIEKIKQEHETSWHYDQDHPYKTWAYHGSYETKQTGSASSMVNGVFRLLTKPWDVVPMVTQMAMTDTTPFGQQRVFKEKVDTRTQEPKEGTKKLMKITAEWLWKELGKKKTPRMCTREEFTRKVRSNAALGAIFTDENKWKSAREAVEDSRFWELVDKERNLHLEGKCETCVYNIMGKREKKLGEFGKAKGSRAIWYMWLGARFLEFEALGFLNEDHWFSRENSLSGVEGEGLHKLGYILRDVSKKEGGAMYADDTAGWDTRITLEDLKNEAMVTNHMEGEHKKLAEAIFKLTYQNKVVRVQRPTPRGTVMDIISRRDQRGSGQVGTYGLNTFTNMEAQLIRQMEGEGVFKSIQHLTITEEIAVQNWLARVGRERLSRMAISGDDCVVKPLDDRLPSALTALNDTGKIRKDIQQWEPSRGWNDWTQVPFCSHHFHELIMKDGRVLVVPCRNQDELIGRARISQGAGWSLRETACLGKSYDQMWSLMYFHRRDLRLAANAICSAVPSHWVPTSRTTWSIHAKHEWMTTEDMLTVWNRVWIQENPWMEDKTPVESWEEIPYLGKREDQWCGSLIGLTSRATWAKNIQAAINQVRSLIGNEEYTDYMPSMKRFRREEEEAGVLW
Protein S100-A4, sequence (P26447 whole entry): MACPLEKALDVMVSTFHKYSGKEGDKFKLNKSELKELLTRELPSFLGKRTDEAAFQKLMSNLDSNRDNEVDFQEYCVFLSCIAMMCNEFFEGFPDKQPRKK

Broadly, the EC50 is the concentration giving half of the maximal effect. In general, CC50 refers to the concentration that lowers cell viability or growth by half. Take `Cc1ccc(C(=O)Oc2cc(N)n(S(=O)(=O)c3ccc(F)cc3)n2)cc1`: the EC50 in [1] is > 99 µM (inactive); in assay [2] it was > 99 µM (inactive); in assay [3], 5.26 µM (active); in assay [4], 4.1 µM (active). For the same compound, in [5], the CC50 was > 99 µM (inactive).

By AC50 is commonly meant the midpoint of the concentration-response curve, whichever way the signal moves. The IC50 is the point on the concentration scale where inhibition reaches its midpoint. In the case of `CCC(CNc1cc(OC)cc2cccnc12)NC1CCCCC1` (centres undefined), the AC50 in [6] was > 380 µM (inactive); in [8], 5.07 µM (active); in [9], 39 µM (active); in [13], 7.62 µM (active). Further, the EC50 in assay [7] is > 195 µM (not active); in assay [14] it was 1.95 µM (active). In addition, the IC50 in [10] was 39.2 µM (active); in [12] it was 113 µM (inactive). Further, the CC50 in [11] was > 40 µM (active).
